Where no end group is shown, it is not given here. The star is where a group is joined. Myristoyl = CCCCCCCCCCCCCC(=O)*

Experiment [1] has as its system WI-38 fibroblasts overexpressing R175H p53 (WI38-175). Kind of experiment: Crystal violet viability assay. In kind it is cell-based. The settings on record: 48 hours; much more prominent than in mNoxa-i control cells. Here is the method:
FIGS. 13A and 13B are bar graphs illustrating the effect of various tested peptides on the viability of cells expressing Mut-p53, as determine by crystal violet assay. WI-38 fibroblasts expressing endogenous WT p53 were infected with retroviruses expressing either mouse Noxa shRNA (WI38-m-Noxa-i) as a nonspecific control or the R175H p53 mutant for stable overexpression of mutant p53 (WI38-175). The cells (WI38-m-Noxa-i or WI38-175) were seeded at 3000 cells per well in 96-well plates. Tested peptides were added to the cells. Different concentrations of etoposide (cytotoxic drug, 4′-Demethyl-epipodophyllotoxin 9-[4,6-O—(R)-ethylidene-beta-D-glucopyranoside], 4′-(dihydrogen phosphate) were used as positive control for cell death and as a standard reference curve to assess the effect of tested peptides. 48 hours after treatment, cells were washed with PBS to exclude dead cells and debris, and cells that remained attached to the plate were stained with crystal-violet for 30 minutes. Crystal violet was removed and cells were washed 4 times with PBS to remove residual crystal violet. Then, the stained cells were dissolved in 10% acetic acid and plates were taken for optical density measurement at 595 nM (optimal for crystal violet). The bar graphs of FIGS. 13A and 13B show the optical density reads at 595 nm, which reflect the number of cells in the plate after treatment, normalized to the non-treated (NT) samples.
Cells were cultured in 96 wells plates with 2500-4000 cells/well in 0.1 ml and incubated overnight at 37° C. in order to adhere to the plate. Serial dilutions of different peptides (0.5 μg/ml) were added in 0.1 ml aliquots and the plates incubated for additional 48 h at 37° C. Then medium was removed and cell lysis was determined by staining the cells with crystal violet (0.5%) in methanol/water (1:4, v/v), 50 μl each well, for 10 min, followed by 3 washes with PBS. Afterwards, 10% acetic acid (50 μl) was added to each well and shaken for 10 min. Then, automatic plate reading was performed at 595 nm.
An important indication for the reactivating peptides activity is their effect in-vivo on cancer cells that express Mut-p53. In particular, reactivating peptides that can cause specifically Mut-p53-dependent death of cancer cells, with minimal toxic effects on normal cells are desired. A crystal-violet based viability assay, in which crystal-violet is employed to stain cells that adhere to the plate and therefore the amount of dye is proportional to cell number was used to determine the effect of the various test peptides on Mut-p53-dependent death.
Cells were plated in 96-well plates, at calibrated density that allows them to grow for 48 hours without reaching confluence. Peptides are added 6 hours later. Different concentrations of etoposide (cytotoxic drug) were used as positive control for cell death and as a standard reference curve to assess the effect of tested peptides. 48 hours after treatment, cells were washed with PBS to exclude dead cells and debris, and cells that remained attached to the plate were stained with crystal-violet for 30 minutes. Crystal-violet was removed and cells were washed with PBS 4 times to eliminate remains of crystal-violet. Then, the stained cells were dissolved in 10% acetic acid and plates were taken for optical density measurement at 595 nM (specific to crystal-violet).
FIGS. 13A and 13B illustrate a representative experiment of screening performed on 128 synthesized peptides. In this experiment, WI-38 fibroblasts were used. These cells express endogenous WT p53 and were further infected with a virus expressing either mouse Noxa shRNA, as a nonspecific control or the R175H p53 mutant for stable overexpression of mutant p53. Both of these sub-lines (mNoxa or R175H p53) were seeded at 3000 cells per well and treated as described above. […]

Experiment [2] concerns ES2 ovarian carcinoma cells (Mut-p53, position 241). Kind of experiment: Annexin-V/PI apoptosis assay by flow cytometry. Format: cell-based. The settings on record: 12 ug/ml. The method, then: FIGS. 17A, 17B, 17C and 17D illustrate representative experiments performed on ES2 ovarian carcinoma cells expressing Mut-p53 mutated at position 241 within the DBD. […] Cells were harvested and an apoptosis assay (FIGS. 17A and 17B) was performed using the Annexin-V staining kit (Roche, REF 11 988 549 001). Non-fixed cells were stained with both anti Annexin FITC conjugated antibody to detect apoptotic cells, and PI (propidium iodide) to stain dead cells, according to the manufacturer's instructions. Stained cells were then analyzed by flow cytometry. A total of 10,000 cells was counted for each sample and divided into four sub populations according to staining intensity; cells negative for both PI and Annexin (−PI, −Annexin) are termed live; cells negative for PI and positive for Annexin (−PI, +Annexin) are going through early stages of apoptosis; cells positive for PI and Annexin (+PI, +Annexin) are dead cells that underwent an apoptotic process; and cells positive for PI and negative for Annexin (+PI, −Annexin) are assumed as dead cells that died by a non-apoptotic process such as necrosis.
FIGS. 17A and 17B illustrate a representative experiments performed on ES2 ovarian carcinoma cells (FIGS. 17A-D) expressing Mut-p53 with a mutation at positions 241 within the DBD. […] Cells were harvested, and 60% of the cells were taken for Annexin-PI apoptosis assay and 40% for extraction of RNA, cDNA synthesis and real time PCR analysis. Apoptosis was assayed using the Annexin-V staining kit (Roche, REF 11 988 549 001). Non-fixed cells were stained with both anti Annexin FITC conjugated antibody to detect apoptotic cells, and PI (propidium-iodide) to stain dead cells permeable to the compound, according to the manufacturer's instructions. Stained cells were then analyzed by flow cytometry. A total of 10,000 cells was counted for each sample and divided into four subpopulations according to staining intensity: cells negative for both PI and Annexin (−PI, −Annexin) are termed live; cells negative for PI and positive for Annexin (−PI, +Annexin) are going through early stages of apoptosis; cells positive for PI and Annexin (+PI, +Annexin) are dead cells that underwent an apoptotic process; and cells positive for PI and negative for Annexin (+PI, −Annexin) are assumed to be dead cells that died a non-apoptotic death such as necrosis. […] Treatment with pCAPs 242 and 250 causes a rapid increase in apoptotic cells followed by cell death and after 5 hours of treatment 12% of cells are Annexin positive and about 7% are dead. After 16 and 24 hours of treatment with pCAP 250 the apoptotic population increases to about 27% and dead cells accumulate to 29% at 16h and 36% after 24h. […] CD95 and Btg-2 expression is elevated up to 6 fold over non-treated cells.

The next experiment addresses T1, Mut-p53 (R175H p53) (Homo sapiens, UniProt P04637, R175H).
T1 construct: a hot spot full length mutant p53 Mut-p53 R175H (R175H p53); expressed in transfected cells; host or cells: H1299 (p53-null) cells stably overexpressing R175H p53; cell extract
Kind of experiment: Sandwich ELISA for p53 conformation (PAb1620/PAb240 reactivity). In kind it is biochemical. Particulars: extract of H1299 cells overexpressing R175H p53; peptide 50 ng/ml, 2 hours. Here is the method: To measure the conformational effect of the peptides on Mut-p53, a micro-titer plate was coated with either PAb240, PAb1620 or pAb421 (as a positive control and standard for total p53 protein, since the antibody used recognizes both WT and mutant conformations), overnight incubated, washed, blocked, and cell extracts (with or without peptides) were added for an additional 2 hours. After removal of extracts, plates were washed and incubated with the αp53-HRP conjugated Ab for the detection of p53 levels. A TMB (substrate of HRP) assay was performed and optical density was determined at 450 nm. WT p53 served as a positive control for reactivity with PAb1620, and Mut-p53 served as a negative control. The results are presented as the ratio of absorbance between the PAb1620 or PAb240 samples and the control […] sample. MCF7 and H1299-Mut-p53 (ts) A135V (TS) cells were used as positive controls for the WT p53 conformation (1620/240 ratio equals or exceeds 5:1).
96-well plates were coated using 3 different antibodies (1 type of antibody (Ab) in each well): PAb421 recognizes both conformations of p53 and binds to a C-terminus epitope; PAb240 recognizes mutant conformation of p53, binds to epitope within the core domain (amino acids 212-217) (Stephen, C. W. and D. P. Lane, Mutant conformation of p53. Precise epitope mapping using a filamentous phage epitope library. J. Mol. Biol., 1992. 225(3): p. 577-83) which is accessible to the Ab when the protein is partially denatured (for example, when the DBD is mutated); and PAb1620, which recognizes WT conformation of p53, binds to epitope with in the core domain (aa 156, 206-210), formed when folding is in WT conformation (Wang, P. L., F. Salt, and G. Winter, The ‘wild type’ conformation of p53: epitope mapping using hybrid proteins. Oncogene, 2001. 20(18): p. 2318-24).
Wells were incubated overnight (ON) with 100 μl Ab (5 μg/ml) in room temp (RT). The liquid was discarded, and the wells were washed 3 times with Phosphate buffered saline (PBS), 200 μl per each wash. Next, blocking with 200 μl of 5% bovine serum albumin (BSA) diluted in PBS in each well for 1.5 hours at room temperature (RT) was performed. Blocking buffer was discarded, followed by 3 washes in PBS as described above. Samples of mutant and WT p53 proteins (100 μl, 10 μg/ml), together with control peptides pCAP-710 (LPNPPER, SEQ ID NO:328) and pCAP-1220 ([…], SEQ ID NO:368) (5 μg/ml, Sigma Aldrich, or with test peptides 1-153 (5 μg/ml), were incubated for 1.5 hours together, and then added to the wells. Samples were rotated and incubated for 1 hour at RT. Samples were discarded, following 4 washes as described above, using Trisphosphate buffered saline (TPBS). Next, horseradish peroxidase (HRP) conjugated streptavidin p53 antibody (10 μg/ml HAF1355 (R&D)) was added to the wells and incubated at RT for 1 hour. After the plate was washed 3 times in TPBS, TMB substrate solution (50 μl each well, Thermo, (Cat. No. ES001-1L-K)) was added and incubated at 37° c. for 20 min. The reaction was stopped with 2M sulfuric acid (50 μl). The absorbance was measured at 450 nm with a spectrophotometer. Protein concentration was determined by dividing the absorbencies of each sample to the absorbance of Ab 421 samples.
The first screening strategy was based on ELISA. A version of sandwich ELISA was used to examine the effect of the lead test peptides on p53 conformation. To measure the conformational effect of the peptides on Mut-p53, a micro-titer plate was coated with PAb240, PAb1620 or pAb421 (as a positive control), and then the reactivity of p53 to these antibodies was examined. WT p53 served as a positive control for reactivity with PAb1620, and Mut-p53 served as a negative control. To examine the effect of a tested peptide it was added to a solution containing Mut-p53 and change in reactivity to either Ab was tested. […] Several ELISA experiments using different cell extracts were performed. […]
Background: ELISA stands for enzyme-linked immunosorbent assay.

Experiment [3] deals with SW-480 colon carcinoma cells (p53 R273H and P309S). Kind of experiment: Xenograft model, Preclinical Trial #3 (Table 9 experiment 3). In kind it is in vivo, CD1 nude/nude mice. Here is the method:
FIGS. 21A, 21B, 21C, 21D and 21E illustrate the in vivo effect of the indicated peptides in a mouse xenograft model. SW-480 colon cancer cells expressing endogenous mutant p53 and stably expressing luciferase were injected into the left hip of CD1 nude/nude mice. When tumors reached visible size, bioluminescence (indicative of the number of cancer cells) was measured with the IVIS200 system.
After observing the highly significant result in the MDA-MB-231 experiment, additional studies were aimed to extend the observation and examine cells from a different origin, harboring a different p53 point mutation. The SW-480 colon carcinoma cell line harbors two endogenous p53 mutations: the R273H and P309S. SW-480 cells were stably infected with the luciferase reporter gene, and 10^6 cells were subcutaneously injected into nude mice. The experiment contained 15 mice that were randomly divided during the experiment into 3 groups: a control group treated with a cocktail of 3 pCAPs previously proven ineffective, a group treated with a cocktail of 3 effective pCAP (250, 308, 325) and finally a group treated with a single peptide, the pCAP-325. The duration of the SW-480 experiment was 42 days from the point of cell implantation. The time line is relative to the first day of treatment which is marked as day 0. FIGS. 21A-E show tumor growth over time in all three groups as measured by live imaging in the IVIS.
4 pre-clinical experiments have already been performed thus far, using the xenograft model of Mut-p53 expressing cells transfected with a luciferase expression vector, allowing tumor monitoring by live imaging. Two experiments were performed with MDA-MB-231 triple negative breast cancer cells (p53 R280K), one experiment used SW-480 colon cancer carcinoma cells (p53 R273H) and another experiment used SKBR3 breast cancer cells (p53 R175H). In each experiment, cells from the corresponding cell line were injected subcutaneously and allowed the formation of well-established tumors visible both by eye and by live imaging (typically 2-3 weeks). A treatment regimen was then administered, composed of intra-tumor injection of either effective lead peptides or control peptides (showing no activity in-vitro) every three days for a period of up to 42 days.

Turning to ASWQALALYAAGW [pCAP-46], the “reduction in cell numbers, R175H p53 expressing WI-38 cells” value in experiment [1] is listed as “significant reduction in cell numbers”.
For the substance “myr-RRLIVRILKLPNPPER (Myristoyl-RRLIVRILKLPNPPER) [pCAP-242]”, the “apoptosis and cell death time course compared with pCAP 250” value in experiment [2] is “attenuated and slower”. Besides, in experiment [2] (after 5 hours of treatment), the Annexin positive cells worked out at 12% and the dead cells entry is reported as “about 7%”.
As for LRCLLLLIGRVG [pCAP-24], the “reactivity of R175H Mut-p53 towards PAb1620 and PAb240 (conformational change)” value with Mut-p53 (R175H p53) is “increased reactivity of R175H Mut-p53 towards PAb1620 and decreased reactivity towards PAb240”.
For “myr-RRIRDPRILLLHFD (Myristoyl-RRIRDPRILLLHFD) [pCAP-325]”, in experiment [3] (Experiment 3, SW-480), the “IVIS average ratio to day 0” value was 4.4%, the Samples average size is given as 0.12 and the Samples average weight is given as 0.10. Besides, the “Number of total regression” value in experiment [3] (Experiment 3, SW-480, 10 samples per group) amounted to 2. In addition, the “log of luminescence intensity mean at day 0” value in experiment [3] (day 0 (first day of treatment)) worked out at 8.97. Moreover, the “average fold change in tumor size (from luminescence)” value in experiment [3] (day 0 to day 35) was found to be 0.043 fold. In experiment [3] (day 0 to day 35, inferred from log of luminescence intensity mean), this substance yielded a tumor size decrease of 95.6%. The “log of luminescence intensity mean at day 35” value in experiment [3] (day 35) was 7.61. Also, in experiment [3] (p-value <0.05), the “size and weight of extracted tumors compared to control peptides” value was “significantly smaller in size and weight”.

The record behind these values is patent US11028127B2, “Peptides capable of reactivating p53 mutants” (Yeda Research and Development Co. Ltd., priority 2013, dated 2021).
